Reference: patent publication US20080015240A1, “Acid Salt of Benzimidazole Derivative and Crystal Thereof” (priority 2004, published 2008)
Values after ≈ are worked out from the molar mass of the structure shown. Structures can show the parent of a compound that is named as a salt.

Key:
[1] = solubility according to the General Rules of the Japanese Pharmacopoeia 14th Edition; format: physicochemical; conditions: for solubility in Solution 1: Solution 1 of the Japanese Pharmacopoeia; for solubility in Solution 1 / solubility in Solution 2: 20±5° C. within 30 minutes; for solubility in Solution 2: Solution 2 of the Japanese Pharmacopoeia; for solubility in Water: powder shaken 30 seconds every 5 minutes at 20±5° C. within 30 minutes
Method: […]. In accordance with the General Rules of the Japanese Pharmacopoeia 14th Edition, solubility (μg/mL) herein refers to an amount of a substance dissolved in a solvent after the substance in powder is placed in the solvent and the sample is shaken strongly for 30 seconds every 5 minutes at 20±5° C. within 30 minutes.

[2] = order in stability among crystal forms by solvent-mediated transformation of a mixture of crystals; format: physicochemical; conditions: order may change depending on the solvent and temperature
From the text: The order in stability among the crystal forms of each acid salt can be examined by solvent-mediated transformation of a mixture of crystals, but the order may change depending on the solvent and temperature. […]. […] […].

Row | Structure (SMILES) | solubility in Solution 1 ([1]; sulfate) [µg/mL] | solubility in Solution 2 ([1]; sulfate) [µg/mL] | solubility in Water ([1]; sulfate) [µg/mL] | relative stability of crystal form ([2]; sulfate) | also measured
1 | Cc1cccc2scc(Cn3c(SCCCC(=O)O)nc4ccccc43)c12 [Crystal A, 4-(1-((4-methylbenzothiophen-3-yl)methyl)benzimidazol-2-ylthio)butanoic acid, reference compound] |  |  |  |  | solubility in Solution 1 [1]: 2.5 µg/mL (≈ 6.3 µM); solubility in Solution 2 [1]: 1.9 µg/mL (≈ 4.79 µM)
2 | Cc1cccc2scc(Cn3c(SCCCC(=O)O)nc4ccccc43)c12.Cl [Crystal-HB, 4-(1-((4-methylbenzothiophen-3-yl)methyl)benzimidazol-2-ylthio)butanoic acid hydrochloride] |  |  |  |  | relative stability of crystal form [2]: more stable than the other crystal forms
3 | Cc1cccc2scc(Cn3c(SCCCC(=O)O)nc4ccccc43)c12 [Crystal-SA, 4-(1-((4-methylbenzothiophen-3-yl)methyl)benzimidazol-2-ylthio)butanoic acid sulfate] | 8.6 | 67.3 |  |  | 
4 | Cc1cccc2scc(Cn3c(SCCCC(=O)O)nc4ccccc43)c12 [Crystal-SB, 4-(1-((4-methylbenzothiophen-3-yl)methyl)benzimidazol-2-ylthio)butanoic acid sulfate] | 19.8 | 24.2 | 0.8 |  | 
5 | Cc1cccc2scc(Cn3c(SCCCC(=O)O)nc4ccccc43)c12 [Crystal-SC, 4-(1-((4-methylbenzothiophen-3-yl)methyl)benzimidazol-2-ylthio)butanoic acid sulfate] | 10.6 | 72.4 | 0.1 | more stable than the other four crystal forms | 
6 | Cc1cccc2scc(Cn3c(SCCCC(=O)O)nc4ccccc43)c12 [Crystal-SF, 4-(1-((4-methylbenzothiophen-3-yl)methyl)benzimidazol-2-ylthio)butanoic acid sulfate] | 7.6 | 74.0 | 0.1 | close to that of crystal-SA | 
7 | Cc1cccc2scc(Cn3c(SCCCC(=O)O)nc4ccccc43)c12 [Crystal-SG, 4-(1-((4-methylbenzothiophen-3-yl)methyl)benzimidazol-2-ylthio)butanoic acid sulfate] |  |  |  | less stable than crystal-SF | 
